This note sets out measurements from patent US20130302782A1, “Methods for the Phenotypic Detection of HCV Inhibitor Resistant Subpopulations” (Laboratory Corporation of America Holdings, priority 2011, published 2013).

This experiment concerns HCV replicon RTVs containing the NS5B region of Con1 or H77 reference and SDM mutants. Kind of experiment: PhenoSense HCV NS5B Assay: luciferase replicon resistance test vector inhibitor susceptibility in Huh7 cells. The experiment is classed as cell-based, hepatitis C virus. Conditions: MT:WT RTV mixtures 0-100% mutant; control inhibitor. As for the experimental part: RTV RNA was electroporated into a Huh7 cell line, and electroporated cells were incubated in the absence and presence of serially diluted inhibitors. RNA input was monitored by measuring the amount of luciferase activity produced in the electroporated cells at 4 hours post-electroporation. Luciferase activity is expressed as relative light units (RLU). Replication capacity (RC) was determined by evaluating luciferase activity at 72-96 hours postelectroporation in the absence of inhibitor, relative to RNA input and a control reference replicon RTV (Con1). A replication defective Con1 replicon (Con1 polymerase defective) was utilized to determine assay background (data not shown) Inhibitor susceptibility was determined by evaluating the ability of RTVs to replicate in the absence and presence of inhibitor at 72-96 hours post-electroporation. […]
Assay accuracy was assessed by evaluating the HCV polymerase inhibitor susceptibility of RTVs containing the NS5B region of well-characterized subtype 1a (H77) and 1b (Con1) reference sequences and subtype 1a and 1b reference sequences engineered by site-directed mutagenesis (SDM) to contain mutations that confer reduced susceptibility to inhibitors of HCV RdRp (FIG. 3) Inhibitor susceptibility data (IC50-FC and IC95-FC) were analyzed for concordance with phenotypic data reported in the scientific literature. […]

In the case of interferon [INF], the “susceptibility as a function of the proportion of MT RTV within a mixture” value is “not affected”.
